Test results: the supplement of paper PMC6965134
± gives the standard deviation of the averaged measurements. Values belong to the compound of their own block, whether it stands above or below them.

Experiment: TIMS collisional cross section (CCS, N2) of the lipid ion; higher = larger ion cross section
Details: ionization mode: negative, one isomer drawn
Protocol: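 Lipid extracts of human plasma (NIST SRM 1950), mouse liver or HeLa cells were separated by nanoflow C18 LC (30 min gradient) and analysed by TIMS-PASEF on a timsTOF Pro. Ion mobility was calibrated with the Agilent tuning mix (negative mode ions) and converted to collisional cross sections (Mason–Schamp, N2).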

[1] = sample type: Human plasma, ion (formula + adduct): [C45H81O13P-H] 1-
[2] = sample type: Mouse Liver, ion (formula + adduct): [C45H81O13P-H] 1-
[3] = sample type: Mouse Liver, ion (formula + adduct): [C45H79O13P-H] 1-
[4] = sample type: Mouse Liver, ion (formula + adduct): [C44H76NO10P-H] 1-
[5] = sample type: Mouse Liver, ion (formula + adduct): [C44H74NO10P-H] 1-
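Note: lipids from MTBE extraction, five replicate injections per sample, 100 ms TIMS ramp spanning 0.6–1.95 Vs/cm², lipid identity assigned from PASEF MS/MS spectra.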

- TIMS collisional cross section (sample type: Human plasma, ion (formula + adduct): [C39H76NO10P+OAcO] 1-): 293.3 Å²
Structure (SMILES): CCCCCCCCCCCCCCCCCC(=O)OC[C@H](COP(=O)(O)OC[C@H](N)C(=O)O)OC(=O)CCCCCCCCCCCCCC [PS 18:0_15:0@]

- TIMS collisional cross section (sample type: Mouse Liver, ion (formula + adduct): [C46H76NO10P-H] 1-): 288 Å²
Structure (SMILES): CC/C=C\C/C=C\C/C=C\C/C=C\C/C=C\C/C=C\CCC(=O)O[C@H](COC(=O)CCCCCCC/C=C\CCCCCCCC)COP(=O)(O)OC[C@H](N)C(=O)O [PS 18:1@_22:6]

- TIMS collisional cross section (sample type: Mouse Liver, ion (formula + adduct): [C42H80NO10P-H] 1-): 284.2 Å²
Structure (SMILES): CCCCCCCC/C=C\CCCCCCCC(=O)OC[C@H](COP(=O)(O)OC[C@H](N)C(=O)O)OC(=O)CCCCCCCCCCCCCCCCC [PS 18:1_18:0]

- TIMS collisional cross section (sample type: Mouse Liver, ion (formula + adduct): [C40H74NO10P-H] 1-): 282.6 Å²
Structure (SMILES): CCCCC/C=C\C/C=C\CCCCCCCC(=O)OC[C@H](COP(=O)(O)OC[C@H](N)C(=O)O)OC(=O)CCCCCCCCCCCCCCC [PS 18:2@_16:0]

- TIMS collisional cross section (sample type: Mouse Liver, ion (formula + adduct): [C48H78NO10P-H] 1-): 296.6 Å²
Structure (SMILES): CC/C=C\C/C=C\C/C=C\C/C=C\C/C=C\C/C=C\CCC(=O)O[C@H](COC(=O)CCCCCCCCC/C=C\C/C=C\CCCCC)COP(=O)(O)OC[C@H](N)C(=O)O [PS 20:2@_22:6]

- TIMS collisional cross section (sample type: Mouse Liver, ion (formula + adduct): [C42H76NO10P-H] 1-): 281.3 Å²
Structure (SMILES): CCCCC/C=C\C/C=C\C/C=C\CCCCCCC(=O)OC[C@H](COP(=O)(O)OC[C@H](N)C(=O)O)OC(=O)CCCCCCCCCCCCCCC [PS 20:3@_16:0]

- TIMS collisional cross section (sample type: Mouse Liver, ion (formula + adduct): [C44H80NO10P-H] 1-): 286.4 Å²
Structure (SMILES): CCCCC/C=C\C/C=C\C/C=C\CCCCCCC(=O)OC[C@H](COP(=O)(O)OC[C@H](N)C(=O)O)OC(=O)CCCCCCCCCCCCCCCCC [PS 20:3_18:0]

- TIMS collisional cross section (sample type: Mouse Liver, ion (formula + adduct): [C42H74NO10P-H] 1-): 280.1 Å²
Structure (SMILES): CCCCC/C=C\C/C=C\C/C=C\C/C=C\CCCC(=O)OC[C@H](COP(=O)(O)OC[C@H](N)C(=O)O)OC(=O)CCCCCCCCCCCCCCC [PS 20:4_16:0]

- TIMS collisional cross section [4]: 284.6 Å²
Structure (SMILES): CCCCC/C=C\C/C=C\C/C=C\C/C=C\CCCC(=O)OC[C@H](COP(=O)(O)OC[C@H](N)C(=O)O)OC(=O)CCCCCCC/C=C\CCCCCCCC [PS 20:4_18:1]

- TIMS collisional cross section [5]: 286.4 Å²
Structure (SMILES): CCCCC/C=C\C/C=C\C/C=C\C/C=C\CCCC(=O)OC[C@H](COP(=O)(O)OC[C@H](N)C(=O)O)OC(=O)CCCCCCC/C=C\C/C=C\CCCCC [PS 20:4_18:2@]

- TIMS collisional cross section (sample type: Mouse Liver, ion (formula + adduct): [C46H74NO10P-H] 1-): 287.4 Å²
Structure (SMILES): CCCCC/C=C\C/C=C\C/C=C\C/C=C\CCCC(=O)OC[C@H](COP(=O)(O)OC[C@H](N)C(=O)O)OC(=O)CCC/C=C\C/C=C\C/C=C\C/C=C\CCCCC [PS 20:4_20:4]

- TIMS collisional cross section (sample type: Mouse Liver, ion (formula + adduct): [C42H72NO10P-H] 1-): 279 Å²
Structure (SMILES): CC/C=C\C/C=C\C/C=C\C/C=C\C/C=C\CCCC(=O)OC[C@H](COP(=O)(O)OC[C@H](N)C(=O)O)OC(=O)CCCCCCCCCCCCCCC [PS 20:5_16:0]

- TIMS collisional cross section [4]: 284.6 Å²
Structure (SMILES): CC/C=C\C/C=C\C/C=C\C/C=C\C/C=C\CCCC(=O)OC[C@H](COP(=O)(O)OC[C@H](N)C(=O)O)OC(=O)CCCCCCCCCCCCCCCCC [PS 20:5_18:0]

- TIMS collisional cross section (sample type: Mouse Liver, ion (formula + adduct): [C44H78NO10P-H] 1-): 288.7 Å²
Structure (SMILES): CCCCC/C=C\C/C=C\C/C=C\C/C=C\CCCCCC(=O)OC[C@H](COP(=O)(O)OC[C@H](N)C(=O)O)OC(=O)CCCCCCCCCCCCCCC [PS 22:4@_16:0]

- TIMS collisional cross section (sample type: Mouse Liver, ion (formula + adduct): [C46H82NO10P-H] 1-): 291.4 Å²
Structure (SMILES): CCCCC/C=C\C/C=C\C/C=C\C/C=C\CCCCCC(=O)OC[C@H](COP(=O)(O)OC[C@H](N)C(=O)O)OC(=O)CCCCCCCCCCCCCCCCC [PS 22:4_18:0]

- TIMS collisional cross section [5]: 283.5 Å²
Structure (SMILES): CC/C=C\C/C=C\C/C=C\C/C=C\C/C=C\C/C=C\CCC(=O)OC[C@H](COP(=O)(O)OC[C@H](N)C(=O)O)OC(=O)CCCCCCCCCCCCCCC [PS 22:6_16:0]

- TIMS collisional cross section (sample type: Mouse Liver, ion (formula + adduct): [C46H78NO10P-H] 1-): 289.7 Å²
Structure (SMILES): CC/C=C\C/C=C\C/C=C\C/C=C\C/C=C\C/C=C\CCC(=O)OC[C@H](COP(=O)(O)OC[C@H](N)C(=O)O)OC(=O)CCCCCCCCCCCCCCCCC [PS 22:6_18:0]

- TIMS collisional cross section (sample type: Human plasma, ion (formula + adduct): [C39H77N2O6P+HCOO] 1-): 285 Å²
Structure (SMILES): CCCCCCCC/C=C\CCCCCCCC(=O)N[C@@H](COP(=O)([O-])OCC[N+](C)(C)C)[C@H](O)/C=C/CCCCCCCCCCC [SM d16:1_18:1@]

- TIMS collisional cross section (sample type: Human plasma, ion (formula + adduct): [C37H75N2O6P+HCOO] 1-): 280.6 Å²
Structure (SMILES): CCCCCCCCCCCCC/C=C/[C@@H](O)[C@H](COP(=O)([O-])OCC[N+](C)(C)C)NC(=O)CCCCCCCCCCCCC [SM d18:1_14:0@]

Continued, compound first:

Structure (SMILES): CCCCCCCC/C=C\CCCCCCCC(=O)OCC(COP(=O)(O)OC1C(O)C(O)C(O)C(O)C1O)OC(=O)CCCCCCC/C=C\CCCCCCCCC (stereo unspecified) [PI 18:1_19:1]
- TIMS collisional cross section (sample type: Human plasma, ion (formula + adduct): [C46H85O13P-CH3] 1-): 293.6 Å²

Structure (SMILES): CC/C=C\C/C=C\C/C=C\C/C=C\C/C=C\C/C=C\CCC(=O)O[C@H](COC(=O)CCCCCCC/C=C\CCCCCCCC)COP(=O)(O)OC1C(O)C(O)C(O)[C@@H](O)C1O (stereo partly specified) [PI 18:1_22:6@]
- TIMS collisional cross section (sample type: Mouse Liver, ion (formula + adduct): [C49H81O13P-H] 1-): 299.8 Å²

Structure (SMILES): CCCCC/C=C\C/C=C\CCCCCCCC(=O)OC[C@H](COP(=O)(O)OC1[C@H](O)[C@H](O)C(O)[C@H](O)[C@H]1O)OC(=O)CCCCCCC/C=C\CCCCCCCC (stereo partly specified) [PI 18:2_18:1]
- TIMS collisional cross section [1]: 292.5 Å²
- TIMS collisional cross section [2]: 291.9 Å²

Structure (SMILES): CCCCC/C=C\C/C=C\CCCCCCCC(=O)OC[C@H](COP(=O)(O)OC1C(O)C(O)C(O)[C@@H](O)C1O)OC(=O)CCCCCCC/C=C\C/C=C\CCCCC (stereo partly specified) [PI 18:2_18:2]
- TIMS collisional cross section [3]: 290.2 Å²

Structure (SMILES): CCCCC/C=C\C/C=C\CCCCCCCCCC(=O)OC[C@H](COP(=O)(O)OC1[C@H](O)[C@H](O)C(O)[C@H](O)[C@H]1O)OC(=O)CCCCCCCCCCCCCCCCC (stereo partly specified) [PI 20:2_18:0@]
- TIMS collisional cross section (sample type: Human plasma, ion (formula + adduct): [C47H87O13P-H] 1-): 300.4 Å²

Structure (SMILES): CCCCC/C=C\C/C=C\C/C=C\CCCCCCC(=O)OC[C@H](COP(=O)(O)OC1[C@H](O)[C@H](O)C(O)[C@H](O)[C@H]1O)OC(=O)CCCCCCCCCCCCCCC (stereo partly specified) [PI 20:3@_16:0]
- TIMS collisional cross section [1]: 298.9 Å²

Structure (SMILES): CCCCC/C=C\C/C=C\C/C=C\CCCCCCC(=O)OC[C@H](COP(=O)(O)OC1[C@H](O)[C@H](O)C(O)[C@H](O)[C@H]1O)OC(=O)CCCCCCCCCCCCCCC (stereo partly specified) [PI 20:3_16:0@]
- TIMS collisional cross section [2]: 293.1 Å²

Structure (SMILES): CCCCC/C=C\C/C=C\C/C=C\C/C=C\CCCC(=O)OC[C@H](COP(=O)(O)OC1[C@H](O)[C@H](O)C(O)[C@H](O)[C@H]1O)OC(=O)CCCCCCCCCCCCCCC (stereo partly specified) [PI 20:4@_16:0]
- TIMS collisional cross section [3]: 303.5 Å²

Structure (SMILES): CCCCC/C=C\C/C=C\C/C=C\C/C=C\CCCC(=O)OC[C@H](COP(=O)(O)OC1[C@H](O)[C@H](O)C(O)[C@H](O)[C@H]1O)OC(=O)CCCCCCCCCCCCCCC (stereo partly specified) [PI 20:4_16:0]
- TIMS collisional cross section (sample type: Human plasma, ion (formula + adduct): [C45H79O13P-H] 1-): 291.9 Å²
- TIMS collisional cross section [3]: 291.3 Å²

Structure (SMILES): CC/C=C\C/C=C\C/C=C\C/C=C\C/C=C\CCCC(=O)OC[C@H](COP(=O)(O)OC1[C@H](O)[C@H](O)C(O)[C@H](O)[C@H]1O)OC(=O)CCCCCCCCCCCCCCC (stereo partly specified) [PI 20:5@_16:0]
- TIMS collisional cross section (sample type: Mouse Liver, ion (formula + adduct): [C45H77O13P-H] 1-): 290.1 ± 1.1 Å²

Structure (SMILES): CC/C=C\C/C=C\C/C=C\C/C=C\C/C=C\CCCC(=O)OC[C@H](COP(=O)(O)OC1[C@H](O)[C@H](O)C(O)[C@H](O)[C@H]1O)OC(=O)CCCCCCCCCCCCCCCCC (stereo partly specified) [PI 20:5_18:0@]
- TIMS collisional cross section (sample type: Mouse Liver, ion (formula + adduct): [C47H81O13P-H] 1-): 296.4 Å²

Structure (SMILES): CCCCCCCCCCCCCCCC(=O)O[C@H](COC(=O)CCCCCCCCCCC)COP(=O)(O)OC[C@H](N)C(=O)O [PS 12:0@_16:0]
- TIMS collisional cross section (sample type: Mouse Liver, ion (formula + adduct): [C34H66NO10P-H] 1-): 262.8 Å²

Structure (SMILES): CCCC/C=C\CCCCCCCC(=O)OC[C@H](COP(=O)(O)OC[C@H](N)C(=O)O)OC(=O)CCCCCCCCCCCCCCC [PS 14:1@_16:0]
- TIMS collisional cross section (sample type: Human plasma, ion (formula + adduct): [C36H68NO10P-H] 1-): 269 Å²
- TIMS collisional cross section (sample type: Mouse Liver, ion (formula + adduct): [C36H68NO10P-H] 1-): 268.4 Å²

Structure (SMILES): CCCCCCCCCCCCCCCC(=O)OC[C@H](COP(=O)(O)OC[C@H](N)C(=O)O)OC(=O)CCCCCCCCCCCCC [PS 16:0_14:0@]
- TIMS collisional cross section (sample type: Human plasma, ion (formula + adduct): [C36H70NO10P-H] 1-): 269.6 Å²
